Like-named read-outs stand apart in the source and are kept apart here.

The source of these data is patent publication US6703420B1, “Amino-thio-acrylonitriles as MEK inhibitors” (Bristol-Myers Squibb Pharma Company, priority 1999, dated 2004).

In one data set the test system is 5-lipoxygenase. The conditions noted are these: HL-60 cells; cited from earlier work.
The test system of data set [1] is Cox-2. The note with it: RAW 264.7 cells; cited from earlier work.
Data set [2] relates to neutrophils, mast cells, or endothelial cells. The note with it: opsonized zymosan, aggregation of high affinity IgG receptor, or thrombin, respectively; cited from earlier work.
Another data set relates to monocytes. The conditions noted are these: LPS treatment of monocytes; cited from earlier work.
In a further data set the test system is activated MEK. The conditions noted are these: cited from earlier work; for type of inhibition, comparative kinetic analysis: activated MEK.
Another data set relates to HL-60 cells. The conditions noted are these: cited from earlier work.
The test system of data set [3] is neutrophils. The note with it: in response to all agents (fMLP, IL-8, C5a, LTB4); cited from earlier work.
A further data set relates to SMC (Smooth Muscle Cell). The conditions noted are these: at concentrations which inhibit ERK activation; cited from earlier work.
Another data set has as its system UM-SCC-1 cells. The note with it: cited from earlier work.
Another data set concerns T cells. The note with it: cited from earlier work.
The next data set concerns Swiss 3T3 cells. The note with it: PDGF-stimulated Swiss 3T3 cells; cited from earlier work.
In data set [4] the test system is RAS-transformed cells. The conditions noted are these: cited from earlier work.
Data set [5] relates to ERK. The conditions noted are these: agonists fMLP, IL-8, C5a and LTB4; cited from earlier work.
The test system of another data set is UM-SCC-1 and MDA-TV-138. The conditions noted are these: controlled by EGF, TGFa and FGF; cited from earlier work.
Data set [6] deals with Cox-2. The conditions noted are these: LPA-stimulated rat mesangial cells; cited from earlier work.
Data set [7] deals with neutrophils. The note with it: cited from earlier work.
A further data set concerns keratinocytes. The note with it: keratinocytes stimulated with a variety of agents.
In the next data set the test system is T cell. The conditions noted are these: in response to TCR engagement; cited from earlier work.
The test system of data set [8] is RAS-transformed cells.
The next data set concerns MMP. The conditions noted are these: IL-1b and TNF-a, fibroblasts; cited from earlier work.
For data set [9], the system named is neutrophils.
A further data set concerns SMC. The note with it: serum starved SMC.
For data set [10], the system named is neutrophils. The conditions noted are these: U0126 at 10 mM; in response to IL-8 and LTB4.
Data set [11] concerns ERK. The note with it: fMLP- and LTB4-stimulated.
For another data set, the system named is keratinocyte. The conditions noted are these: pituitary growth factor extract, primarily FGF.
In the next data set the test system is b2 integrin. The conditions noted are these: U0126 at 10 mM.
In data set [12] the test system is freshly isolated human monocytes and THP-1 cells.
Data set [13] has as its system ERK. The note with it: PMA/ionomycin, Con A stimulation, antigen with costimulation; cited from earlier work.
Data set [14] relates to Cox-2.

In the case of `COc1cccc(-c2cc(=O)c3ccccc3o2)c1N` [PD 098059], in the data set with 5-lipoxygenase, the “5-lipoxygenase translocation from cytosol to nuclear membrane and activation (5-HETE production)” value is on record as “inhibited”. Moreover, the “LPS-induced Cox-2 expression” value in the data set on Cox-2 [1] is recorded as “partially blocked”. In addition, in [2], the arachidonic acid release result is “blocks arachidonic acid release”. Besides, the cytokine production result in the data set with monocytes was “blocked”. Also, in the data set on activated MEK, the “type of inhibition, comparative kinetic analysis” value is reported as “non-competitive inhibitors of activated MEK” and the MEK activity result is given as “inhibits MEK activity”. For the same molecule, in the data set with HL-60 cells, the fMLP-stimulated superoxide generation result is “inhibited”. For the same molecule, in the data set on neutrophils [3], the neutrophil chemotaxis entry is “blocks neutrophil chemotaxis”. In the data set on SMC (Smooth Muscle Cell), the “PDGF-BB-dependent SMC chemotaxis” value is “prevents PDGF-BB-dependent SMC (Smooth Muscle Cell) chemotaxis”. Further, in the data set with UM-SCC-1 cells, the cellular proliferation rate result is listed as “not affected” and the “in vitro invasiveness through an extracellular matrix-coated porous filter” value is on record as “blocked”. Further, the IL-2 production result with T cells (anti-CD3 antibody with anti-CD28 or PMA) was “blocked IL-2 production”. In addition, in the data set with T cells (anti-CD3 antibody, reversed by IL-2), the T cell proliferation result was “inhibit T cell proliferation”. In addition, the “production of IL-4, IL-5 and IL-13” value in the data set on T cells (similarly stimulated T cell cultures) is “enhanced production”. The “TNFa, IL-3 GM-CSF, IFN-g, IL-6 and IL-10 production” value in the data set on T cells (stimulated T cells) is “blocked”. Also, in the data set on Swiss 3T3 cells, the “thymidine incorporation into DNA” value is on record as “blocks thymidine incorporation into DNA”. Besides, in the data set on RAS-transformed cells [4] (normal culture conditions), the “cell growth under normal culture conditions” value is “minimal effects on cell growth”. In the data set on RAS-transformed cells [4] (soft agar), the “growth of RAS-transformed cells in soft agar” value is “impede the growth”. Further, the “ERK activation in neutrophils” value in the data set on ERK [5] is on record as “blocked”. The urokinase secretion result in the data set with UM-SCC-1 and MDA-TV-138 is “reduce urokinase secretion”. In addition, in the data set on Cox-2 [6], the Cox-2 induction entry is “inhibits Cox-2 induction”. The superoxide anion production result in the data set on neutrophils [7] is given as “does not alter superoxide anion production”.

Turning to `Cc1ccccc1C(C(C#N)=C(N)Sc1ccccc1N)c1ccc(Cl)cc1` (centres unmarked), the melting point (as a rule, the temperature of the solid-liquid transition) is 63.5 to 72 °C.

Regarding `N#CC(=C(N)Sc1ccc(N)cc1)c1cccc(C(O)c2ccncc2)c1` (centres unmarked), the melting point fell in the range of 146.5 to 147.5 °C.

As to `N#CC(=C(/N)Sc1ccccc1N)/C(C#N)=C(\N)Sc1ccccc1N` [Example U0126], in the data set on keratinocytes, the arachidonic acid release result is “block arachidonic acid release”; the “prostaglandin and leukotriene synthesis” value is reported as “block”. For the same molecule, in the data set with T cell, the IL-2 synthesis result was “blocked”; the “T cell activation and proliferation” value was “blocked”. In addition, the “cell growth under normal culture conditions” value with RAS-transformed cells [8] (normal culture conditions) is recorded as “minimal effects on cell growth”. Besides, in the data set on RAS-transformed cells [8] (soft agar), the “growth of RAS-transformed cells in soft agar” value was “impede the growth”. In addition, the “type of inhibition, comparative kinetic analysis” value in the data set with activated MEK is “non-competitive inhibitors of activated MEK”. The MMP induction result with MMP is listed as “block MMP induction”. Moreover, in the data set on neutrophils [9], the NADPH-oxidase activity result is listed as “does not impair NADPH-oxidase activity” and the bacterial cell killing result is recorded as “does not impair”. Also, the “growth of human tumor cell lines in soft agar” value in the data set on human tumor cell lines is given as “can prevent cell growth in some cells, but not all”. Besides, the PDGF-dependent growth result in the data set with SMC was “prevents PDGF-dependent growth”. Besides, the “block of chemotaxis through a fibrin gel” value with neutrophils [10] was above 80%. In the data set with ERK [11], the “ERK activation in neutrophils” value was “blocks ERK activation”. The keratinocyte proliferation entry in the data set on keratinocyte was “blocks keratinocyte proliferation”. Also, the “blunting of up regulation of b2 integrin on the cell surface” value in the data set with b2 integrin was found to be 50%. Further, in data set [12], the LPS-induced cytokine production entry is given as “inhibitable”. Moreover, the “ERK activation in T cells” value with ERK [13] was “prevents ERK activation”. Also, in the data set with Cox-2 [14] (TPA-stimulated fibroblasts), the Cox-2 induction entry is “inhibits Cox-2 induction”. Moreover, the “serum induction of the Cox-2 transcript” value with Cox-2 [14] (fibroblasts, serum) is given as “does not impede serum induction of the Cox-2 transcript”.
